One assay has as its target Human His6-CBX7 (Homo sapiens (Human), UniProt O95931). The experiment in a line: CBX7 AlphaScreen assay (binding of CBX7 chromodomain to H3K27me3 peptide). From the text:
A biochemical assay was developed based on nanoparticle AlphaScreen assay to monitor the binding of recombinant CBX chromodomain (CBX7) to a methylated peptide (H3K27me3).
The primary assay uses recombinant CBX chromodomain and synthetic, trimethylated H3 histone tail peptide. When CBX/histone tail-binding occurs, AlphaScreen beads are brought in close proximity, resulting in singlet molecular oxygen transfer and production of a luminescent signal. Assay positives inhibiting the binding interaction are therefore expected to prevent complex formation, diminishing signal intensity. The AlphaScreen technology features an anti-Stokes shift in detection: due to energy transfer between beads by singlet oxygen and internal chemical reactions within the acceptor bead, the emission wavelength is blue-shifted relative to the excitation wavelength, which is impossible in traditional fluorescent assays. The relatively long path length of 200 nm that singlet molecular oxygen can travel enables reporting on full protein complexes and not just single target binding. […] Neither the small molecules being tested nor the target protein, CBX7, need to be chemically, conformationally, or behaviorally altered by tethering them to a surface or reporter that may decrease physiological relevance and beget screening artifacts. The primary assay monitors binding of the chromodomain of CBX7 to a histone tail containing a trimethylated lysine at K27, the biologically relevant interaction through which PRC binds to chromatin to repress transcription. This is a robust proximity-based assay that utilizes AlphaScreen technology (PerkinElmer). The assay consists of His6-CBX7 bound to a Ni^++ acceptor bead and the biotinylated histone tail bound to a streptavadin donor bead. Upon CBX7/H3K27me3 binding, the steptavidin bead comes into proximity with the Ni^++ bead to luminesce upon light excitation ([…]; see below).
The protocol for the CBX7 AlphaScreen was as follows: a standard alpha buffer (50 mM HEPES, 150 mM NaCl, 0.1% w/v BSA, 0.01% w/v Tween20) at pH 8.0 and make up two stock solutions at 2× final concentration in the alpha buffer. Solution A contains Human His6-CBX7 is used with biotinylated-H3K27me3 (residues 20-34), at 100 nM and 50 nM respectively. Solution B contains 20 nM streptavidin donor beads and 20 nM nickel acceptor beads. For 384 well assay formats, 10 uL of solution A is added to each well of the assay plate and the plate is spun at 1000 rpm for 30 seconds. 100 nL of experimental compounds from stock plates are delivered by robotic pin transfer using a Janus Workstation (PerkinElmer), allowing the compounds to interact with CBX7 binding prior to assay measurement, followed by another spin and an incubation room temperature. Finally, 10 uL of solution B is added to each well, the plate is spun again and then incubated at room temperature. AlphaScreen measurements are performed on an Envision 2104 (PerkinElmer) utilizing the manufacturer's protocol that has the correct excitation and emission wavelengths, cutoff filters, delay time, etc. A crosstalk calculation is also done through the Envision software to correct for luminescence for adjacent wells while reading the plate. The signal is then normalized to DMSO control wells on the compound plate prior to creation of the IC50 curves.

A further assay deals with CBX7 (Homo sapiens (Human), UniProt O95931). The experiment in a line: Isothermal titration calorimetry. To be noted: in words (FIG. 20). Format: binding. The text has this: A new series of compounds were designed and synthesized based on computational modeling of inhibitor compounds with the literature reported crystal structure of CBX.
Sequence of CBX7 (O95931 whole entry): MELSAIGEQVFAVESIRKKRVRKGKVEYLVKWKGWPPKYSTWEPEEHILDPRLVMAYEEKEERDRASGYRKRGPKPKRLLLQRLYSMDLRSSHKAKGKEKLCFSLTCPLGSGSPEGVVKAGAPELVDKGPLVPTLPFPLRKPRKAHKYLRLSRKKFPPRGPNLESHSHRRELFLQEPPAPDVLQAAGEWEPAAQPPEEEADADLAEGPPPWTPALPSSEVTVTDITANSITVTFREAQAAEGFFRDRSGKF
On the technique in general: Isothermal titration calorimetry measures the heat released or taken up as one component is titrated into another.

Assay [1] concerns HCT292 human lung cancer cells. The experiment in a line: HCT292 cell viability (crystal violet / ATPlite). Format: cell-based. The settings on record: Homo sapiens, 96 h, HCT292 cells, relative to DMSO. As to the method:
Lastly, the biological activity of lead compounds was assessed in cancer cells lines determined to be sensitive to CBX inhibition. First, a cell line screening for CBX2 and CBX3 dependence/sensitivity was conducted using shRNAs. […] These cell lines were utilized to evaluate the potential cellular activity of a panel of CBX inhibitors (Tables 3-9).
Briefly, HCT292 cells were treated 24 hours after passage; the compounds in DMSO were added directly to their media. Initially, which cells caused cell death was checked by fixing and staining the cells with crystal violet 96-hours post treatment and then reading the absorbance using the Envision and comparing the signal to a DMSO control. This was done as a preliminary viability screen prior to the ATPlite assay to determine which compounds HCT292 cells were and H661 cells were not sensitive to. […] Thus, a cellular system to evaluate the activity of small molecule CBX inhibitors was established.
For orientation: In ATP-based viability assays light output follows the ATP content of the culture.

Usually IC50 stands for the concentration that inhibits the measured activity by half. What is called viability is a read-out of living cells in per cent, often relative to untreated cells. High values mean better survival, low ones a greater loss of cells.

Sequence of Human His6-CBX7 (O95931 11-69): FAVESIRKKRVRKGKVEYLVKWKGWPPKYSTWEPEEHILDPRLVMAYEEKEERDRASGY

As to `COC(=O)C1CSC(CC(=O)Nc2ccc(N3CCCC3)cc2)C(=O)N1` (stereo not drawn) [ACV-22], on Human His6-CBX7 (in words (FIG. 9)), the “binding affinity with CBX” value was “low micromolar”. Moreover, at CBX7, the “binding affinity by isothermal titration calorimetry” value is reported as “further confirmed”.
Regarding `COC(=O)c1ccc2nc(-c3ccc(O)c(O)c3O)c(NCc3ccccc3)n2c1` [ACV-91], the IC50 on Human His6-CBX7 (average, His6-CBX7 / biotinylated-H3K27me3, read-out: AVG CBX7 Alpha IC50) turned out to be 12 µM. This molecule gave a viability at 10 µM in assay [1] (10 uM) of 33.5%. This molecule registered a viability at 20 µM in assay [1] (20 uM) of 30.5%. In assay [1] (50 uM), this molecule displayed a viability at 50 µM of 18%.

The values above are taken from patent US12129248B2, “Chromobox protein inhibitors and uses thereof” (Dana-Farber Cancer Institute, Inc., priority 2016, dated 2024).
